Patent US20170209579A1, “NON-INVASIVE RADIOFREQUENCY FIELD TREATMENT FOR CANCER THERAPY” (Baylor College of Medicine, priority 2014, published 2017)

How the values were obtained:
[1] = tested on: Hep3B cells; assay: Cell cycle analysis (BrdU flow cytometry) in Hep3B cells; format: cell-based, human
Procedure: For cell cycle analysis a BrdU-labeling protocol from BrdU Flow Kit (BD Pharmingen, San Diego, Calif.) was used according to the supplied instructions. Data was analyzed using FlowJo 7.63 (Tree Star, Inc., Ashland, Oreg.). For cell cycle analysis, a BrdU-labeling protocol was used to identify cells in S-phase of the cell cycle accurately. Cells were harvested from an exponentially growing culture as described for other experiments and seeded in 6-well plates, approximately 150,000 cells per well. After 24-hours adherent sub-confluent monolayers were noted and cells were exposed to various experimental conditions. At the end of the treatments, cells were washed and sampled at various time points to study the progression of the cell cycle in time. One hour before each time point, cells were pulsed with BrdU (10 μM) for 1 hour. BrdU gets incorporated in the DNA of cells in S-phase along with other nucleotides and can be detected using a mouse FITC conjugated anti-BrdU antibody. A BrdU Flow Kit (BD Pharmingen, San Diego, Calif.) was used according to the supplied instructions without modifications. For counterstaining of DNA content, cells were incubated with 7-amino-actinomycin D (7-AAD) supplied with the kit, on ice for 20 minutes before analysis on a BD LSR II flowcytometer (BD biosciences San Jose, Calif.). Single cell populations were identified using forward and side-scatter profiles. A total of 10,000 events were recorded from a gated single cell population. For 7-AAD fluorescence measurements, a SORP YG laser (561 nm) was used to excite the cells and emission was recorded through a 630LP filter followed by a 660/20 filter. For FITC fluorescence measurements, a SORP blue laser (488 nm) was used to excite the cells and emission was recorded through 505LP filter followed by a 525/50 filter. There was no spectral over-lap between the two emission spectra and compensation was not required. Data was analyzed using FlowJo 7.63 (Tree Star, Inc., Ashland, Oreg.). […] Cell cycle progression was analyzed over time (FIGS. 16 and 17). […]

[2] = tested on: Rad51; assay: Colocalization of Rad51 with γ-H2AX foci at gemcitabine-stalled replication forks; format: cell-based, human; conditions: Hep3B
Source text: FIGS. 15A-15D provide inhibition of Mre11 and Rad51 recruitment at gemcitabine-stalled replication forks by hyperthermia. (15A) Hep3B cells were exposed to hyperthermia and/or gemcitabine. (15B) and (15C) Mre11 and Rad51 were recruited at gemcitabine-stalled replication forks. […] Scale bar=10 μm. (15D) Quantification of data from colocalization experiments. Data are mean Pearson correlation (a.u.) and error bars represent the SD from three independent experiments with 10 replicates each (*P<0.05, **P<0.01). Gem=Gemcitabine; HT=Hyperthermia; N/A=not applicable, i.e., in hyperthermia treated cells BrdU staining is not detected as distinct foci and therefore correlation could not be quantified; ns=not significant, by the Student unpaired two-sided t test in comparison with gemcitabine alone group. Also, see FIGS. 22-24. […]
For immunocytochemistry assay, an indirect immunofluorescence approach was used. […] Cells from an exponentially growing culture were counted and approximately 50,000 cells were seeded in each well of a 12-well plate. […]
The slides were sealed with a conventional nail polish hardener and stored at 4° C. until imaging. […] Exposure settings were set to maximize dynamic range initially and then kept constant across multiple samples to allow quantitative comparisons. […]

[3] = tested on: subcutaneous pancreatic tumors; assay: Tumor size in mice bearing subcutaneous pancreatic tumors, RF + Gemcitabine; format: in vivo, mouse; conditions: Gemcitabine 70 mg/Kg intravenously once per week; higher power RF system (0-1200 W); n=5
Procedure: (13A) Mice bearing subcutaneous pancreatic tumors were exposed to either RF, Gemcitabine, or RF+Gemcitabine once per week until the control group tumor size became a burden (n=5 in each group). The RF system used can be seen in (13B) and is a higher power version (0-1200 W) of the portable RF system. RF conditions were similar to that shown in (13B). Gemcitabine was given intravenously at a dosage of 70 mg/Kg. […] (13A) Mice bearing subcutaneous pancreatic tumors were exposed to non-invasive RF, Gemcitabine, or non-invasive RF+Gemcitabine once per week until the control group tumor size became a burden (n=5 in each group). The non-invasive RF system used can be seen in (13B) and is a higher power version (0-1200 W) of the portable RF system. non-invasive RF conditions were similar to that shown in FIG. 13B. Gemcitabine was given intravenously at a dosage of 70 mg/Kg.

Q: For `Nc1ccn([C@@H]2O[C@H](CO)[C@@H](O)C2(F)F)c(=O)n1` [gemcitabine, 2′,2′-difluoro 2′-deoxycytidine], which “cell cycle progression, gemcitabine followed by hyperthermia compared with gemcitabine alone” value ([1]; 1 μM 24 hours, last two hours at 42.5° C.) is on record?
A: much slower progression through late-S and G2/M phases

Q: What about the cell cycle progression ([1]; 1 μM gemcitabine, 24-hour incubation) of the same compound?
A: completely halts cell cycle progression

Q: What about the “cell cycle recovery once gemcitabine is removed” value ([1]; after 24 hours 1 μM gemcitabine) of the same compound?
A: cells resume synchronized DNA synthesis in 24 hours

Q: And the “mean Pearson correlation, Rad51 with γ-H2AX foci” value ([2]; gemcitabine alone (10 μg/ml))?
A: 0.24

Q: What about the “mean Pearson correlation, Rad51 with γ-H2AX foci” value ([2]; hyperthermia 42.5° C. 75 minutes then gemcitabine 10 μg/ml) of the same compound?
A: 0.44

Q: And the “tumor size, Gemcitabine+RF group compared to other groups” value [3]?
A: clear reduction in tumor size
